Assay results published in ChEMBL document CHEMBL1158891, “Chemical and biological investigation of the fungus Pulveroboletus ravenelii” (J Nat Prod, 2003).
Values after ≈ are worked out from the molar mass of the structure shown.

Experiments:
[1] = Inhibition of 7,12-dimethylbenz[a]anthracene-induced preneoplastic lesions in BALB/c mouse mammary gland culture after 1 to 10 days; assay type: functional, tissue-based
[2] = target: Prostaglandin G/H synthase 1 (Homo sapiens, UniProt P23219); assay: Inhibition of COX1
[3] = target: T1, Prostaglandin G/H synthase 2 (Homo sapiens, UniProt P35354); assay: Inhibition of COX2
T1 sequence (P35354 whole entry): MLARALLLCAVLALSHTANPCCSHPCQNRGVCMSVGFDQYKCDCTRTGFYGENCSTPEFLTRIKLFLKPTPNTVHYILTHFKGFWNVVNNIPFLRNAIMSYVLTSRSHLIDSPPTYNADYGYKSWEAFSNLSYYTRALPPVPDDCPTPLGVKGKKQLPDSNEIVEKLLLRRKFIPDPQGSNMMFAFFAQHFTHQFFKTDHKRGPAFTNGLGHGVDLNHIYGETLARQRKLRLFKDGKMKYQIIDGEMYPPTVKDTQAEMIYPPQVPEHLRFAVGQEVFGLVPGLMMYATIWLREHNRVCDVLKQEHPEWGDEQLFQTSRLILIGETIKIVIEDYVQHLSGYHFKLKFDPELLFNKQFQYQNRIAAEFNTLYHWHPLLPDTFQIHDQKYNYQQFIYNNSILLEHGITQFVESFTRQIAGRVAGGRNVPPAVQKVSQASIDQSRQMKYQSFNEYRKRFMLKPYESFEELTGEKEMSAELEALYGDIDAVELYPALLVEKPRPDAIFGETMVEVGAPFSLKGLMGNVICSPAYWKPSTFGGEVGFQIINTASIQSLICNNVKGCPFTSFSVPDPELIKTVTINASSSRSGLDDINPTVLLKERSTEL

Staphylococcus aureus = assay: Antimicrobial activity against Staphylococcus aureus; assay type: functional, organism-based

Sequence of Prostaglandin G/H synthase 1 (P23219 whole entry): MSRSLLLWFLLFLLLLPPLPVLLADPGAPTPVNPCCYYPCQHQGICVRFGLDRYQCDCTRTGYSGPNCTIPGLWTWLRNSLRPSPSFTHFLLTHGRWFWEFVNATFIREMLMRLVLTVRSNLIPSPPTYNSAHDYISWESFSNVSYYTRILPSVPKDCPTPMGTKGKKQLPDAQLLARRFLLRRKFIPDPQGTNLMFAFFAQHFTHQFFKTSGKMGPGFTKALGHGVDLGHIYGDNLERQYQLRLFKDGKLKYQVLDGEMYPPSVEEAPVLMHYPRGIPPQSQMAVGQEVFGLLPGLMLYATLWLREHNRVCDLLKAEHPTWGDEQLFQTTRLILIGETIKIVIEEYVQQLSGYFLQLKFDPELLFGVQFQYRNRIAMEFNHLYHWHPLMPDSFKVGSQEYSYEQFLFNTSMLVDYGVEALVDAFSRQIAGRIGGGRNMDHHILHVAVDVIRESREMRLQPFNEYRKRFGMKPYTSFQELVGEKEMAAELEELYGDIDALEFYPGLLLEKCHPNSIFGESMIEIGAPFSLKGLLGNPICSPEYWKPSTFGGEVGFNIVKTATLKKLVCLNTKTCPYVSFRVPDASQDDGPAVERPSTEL

IC50 [1] | IC50 [2] | IC50 [3] | IC50 (Staphylococcus aureus) | SMILES
6 µg/mL (≈ 14.1 µM) |  |  |  | COC(=O)[C@@H](c1ccccc1)[C@@H](C1=C(O)/C(=C/c2ccccc2)OC1=O)c1ccccc1 [PULVERAVEN A]
0.8 µg/mL (≈ 1.88 µM) | > 234 µM | > 234 µM |  | COC(=O)[C@@H](c1ccccc1)[C@H](C1=C(O)/C(=C/c2ccccc2)OC1=O)c1ccccc1 [PULVERAVEN B]
> 10 µg/mL | 676 µM |  | 20 µg/mL (≈ 62.1 µM) | COC(=O)/C(=C1/OC(=O)C(c2ccccc2)=C1O)c1ccccc1 [VULPINIC ACID]
